Legend:
[1] = molecular target: Purinergic P2Y (Rattus norvegicus) (UniProt O35811+Q9EPX4+P49651+Q63371+P41232+O35881+Q6GUG4); experiment: Inhibition of Purinergic P2Y at compound concentration of 10.0 uM in the Eurofins-Panlabs radioligand binding assay (Eurofins_assay_268820); assay type: protein assay; set-up: ligand concentration 0.1 nM; settings: Compound concentration 10.0 uM
[2] = molecular target: GABA-A receptor; anion channel (Rattus norvegicus) (UniProt O09028+P15431+P18506+P18508+P19969+P20236+P23574+P23576+P28471+P28473+P30191+P62813+P63079+P63138+Q91ZM7+Q9ES14); settings: Compound concentration 10.0 uM
[3] = molecular target: Inhibitor of nuclear factor kappa-B kinase subunit alpha (Homo sapiens) (UniProt O15111); experiment: Inhibition of IKKalpha(h) at 10.0 µM in the Eurofins Kinase panel; settings: Compound concentration 10.0 uM
[4] = molecular target: Platelet-derived growth factor receptor alpha (Homo sapiens) (UniProt P16234); experiment: Inhibition of PDGFRalpha(h) at 10.0 µM in the Eurofins Kinase panel; settings: Compound concentration 10.0 uM
[5] = molecular target: AP2-associated protein kinase 1 (Homo sapiens) (UniProt Q2M2I8); experiment: Inhibition of AAK1(h) at 10.0 µM in the Eurofins Kinase panel; settings: Compound concentration 10.0 uM
[6] = molecular target: Mitogen-activated protein kinase kinase kinase kinase 2 (Homo sapiens) (UniProt Q12851); experiment: Inhibition of GCK (h) at 10.0 µM in the Eurofins Kinase panel; settings: Compound concentration 10.0 uM
[7] = molecular target: GABA-A receptor; anion channel; experiment: GPCRScan assay: inhibition of GABAA/BZP; assay type: protein-complex assay, Rattus norvegicus; set-up: radioligand conc. used [nm] 0.6 – 4.0, parental cells brain tissue
MAO-A = MAO-A (Homo sapiens, UniProt P21397); experiment: Inhibition of Monoamine Oxidase MAO-A at compound concentration of 10.0 uM in the Eurofins-Panlabs enzyme assay (Eurofins_assay_140010); set-up: substrate with concentration 50 uM Kynuramine, incubation time 60 min, incubation temperature 37 C; settings: human recombinant MAO-A expressed in insect Hi5 cells, probe Kynuramine, compound concentration 10 uM
[8] = molecular target: T1, Alpha-1A adrenergic receptor (Homo sapiens) (UniProt P35348); settings: Rattus norvegicus; Compound concentration 10.0 uM
T1 sequence (whole entry): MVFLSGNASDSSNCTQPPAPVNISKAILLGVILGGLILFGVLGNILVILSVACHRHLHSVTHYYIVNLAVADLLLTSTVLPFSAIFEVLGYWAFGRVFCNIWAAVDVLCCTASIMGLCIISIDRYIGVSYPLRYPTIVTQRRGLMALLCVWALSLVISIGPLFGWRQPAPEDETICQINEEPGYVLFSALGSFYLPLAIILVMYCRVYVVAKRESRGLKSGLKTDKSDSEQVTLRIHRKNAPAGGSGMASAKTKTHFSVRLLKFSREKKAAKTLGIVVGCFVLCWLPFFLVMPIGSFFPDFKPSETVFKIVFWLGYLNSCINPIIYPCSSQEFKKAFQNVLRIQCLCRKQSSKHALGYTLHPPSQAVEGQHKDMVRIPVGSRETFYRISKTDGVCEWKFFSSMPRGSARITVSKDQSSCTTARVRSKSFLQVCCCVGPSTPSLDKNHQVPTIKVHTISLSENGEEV

[9] = Inhibition of Atrial Natriuretic Factor (ANF) at 10 µM in the Eurofins-Panlabs radioligand binding assay (Eurofins_assay_211000); settings: Cavia porcellus; Compound concentration 10 uM; Assay protocol publication PMID: 2408776; Detection method Radioligand Binding; Incubation temperature 4 °C; Incubation time 60 min; Ligand Bmax 0.013 pM/ mg protein; Ligand Kd 0.14 nM; Ligand [125I] ANF (rat); Ligand concentration 0.016 nM; Ligand specific binding 78 %; Non-specific ligand with concentration 0.1 µM ANF (rat); Reference compound ANF (rat); Source of …
Rattus norvegicus = organism: Rattus norvegicus; experiment: Inhibition of Thyroid Hormone at 10 µM in the Eurofins-Panlabs radioligand binding assay (Eurofins_assay_285900); assay type: protein assay; settings: Compound concentration 10.0 uM
Homo sapiens = organism: Homo sapiens; experiment: Inhibition of Tumor Necrosis Factor (TNF), Non-Selective at 10 µM in the Eurofins-Panlabs radioligand binding assay (Eurofins_assay_286510); settings: Compound concentration 10.0 uM
[10] = molecular target: C-C chemokine receptor type 5 (Homo sapiens) (UniProt P51681); experiment: Inhibition of Chemokine CCR5 at 10 µM in the Eurofins-Panlabs radioligand binding assay (Eurofins_assay_217720); settings: Compound concentration 10.0 uM
[11] = molecular target: Gamma-aminobutyric acid type B receptor subunit 1 (Homo sapiens) (UniProt Q9UBS5); experiment: Inhibition of GABAB1A at compound concentration of 10.0 uM in the Eurofins-Panlabs radioligand binding assay (Eurofins_assay_228610); set-up: ligand concentration 4 nM; settings: Compound concentration 10.0 uM
[12] = molecular target: Vascular endothelial growth factor receptor 1 (Homo sapiens) (UniProt P17948); experiment: Inhibition of Flt1(h) at 10.0 µM in the Eurofins Kinase panel; settings: Compound concentration 10.0 uM
Mus musculus = organism: Mus musculus; experiment: Inhibition of Phorbol Ester at 10 µM in the Eurofins-Panlabs radioligand binding assay (Eurofins_assay_264500); set-up: ligand concentration 3 nM; settings: Compound concentration 10.0 uM
[13] = molecular target: Neuropeptide Y receptor type 1 (Homo sapiens) (UniProt P25929); experiment: Inhibition of Neuropeptide Y Y1 at 10 µM in the Eurofins-Panlabs radioligand binding assay (Eurofins_assay_257010); settings: Compound concentration 10.0 uM
[14] = molecular target: Interstitial collagenase (Homo sapiens) (UniProt P03956); experiment: Inhibition of Peptidase, Matrix Metalloproteinase-1 (MMP-1) at 10 µM in the Eurofins-Panlabs enzyme assay (Eurofins_assay_114110); settings: Compound concentration 10.0 uM
[15] = Inhibition of Platelet-Derived Growth Factor (PDGF) at 10 µM in the Eurofins-Panlabs radioligand binding assay (Eurofins_assay_265200); settings: Compound concentration 10 uM; Detection method Radioligand Binding; Incubation temperature 25 °C; Incubation time 45 min; Ligand [3H]PDGF; Ligand concentration 0.02 nM; Non-specific ligand with concentration 10 nM PDGF; Source of protein Swiss mouse 3T3 embryo cells

Sequence of Interstitial collagenase (Homo sapiens) (P03956 whole entry): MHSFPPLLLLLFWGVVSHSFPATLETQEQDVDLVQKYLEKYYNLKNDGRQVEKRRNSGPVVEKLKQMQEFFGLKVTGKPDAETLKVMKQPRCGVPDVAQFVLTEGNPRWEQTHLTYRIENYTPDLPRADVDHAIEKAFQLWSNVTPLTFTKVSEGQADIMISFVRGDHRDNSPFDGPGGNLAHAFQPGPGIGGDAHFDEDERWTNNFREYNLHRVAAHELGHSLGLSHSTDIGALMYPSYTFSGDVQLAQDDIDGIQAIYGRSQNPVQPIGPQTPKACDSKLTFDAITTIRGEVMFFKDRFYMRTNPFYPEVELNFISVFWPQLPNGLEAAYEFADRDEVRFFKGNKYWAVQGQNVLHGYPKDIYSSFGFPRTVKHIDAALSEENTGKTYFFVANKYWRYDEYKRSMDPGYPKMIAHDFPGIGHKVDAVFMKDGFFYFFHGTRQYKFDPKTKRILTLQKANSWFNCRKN
Sequence of Inhibitor of nuclear factor kappa-B kinase subunit alpha (Homo sapiens) (O15111 whole entry): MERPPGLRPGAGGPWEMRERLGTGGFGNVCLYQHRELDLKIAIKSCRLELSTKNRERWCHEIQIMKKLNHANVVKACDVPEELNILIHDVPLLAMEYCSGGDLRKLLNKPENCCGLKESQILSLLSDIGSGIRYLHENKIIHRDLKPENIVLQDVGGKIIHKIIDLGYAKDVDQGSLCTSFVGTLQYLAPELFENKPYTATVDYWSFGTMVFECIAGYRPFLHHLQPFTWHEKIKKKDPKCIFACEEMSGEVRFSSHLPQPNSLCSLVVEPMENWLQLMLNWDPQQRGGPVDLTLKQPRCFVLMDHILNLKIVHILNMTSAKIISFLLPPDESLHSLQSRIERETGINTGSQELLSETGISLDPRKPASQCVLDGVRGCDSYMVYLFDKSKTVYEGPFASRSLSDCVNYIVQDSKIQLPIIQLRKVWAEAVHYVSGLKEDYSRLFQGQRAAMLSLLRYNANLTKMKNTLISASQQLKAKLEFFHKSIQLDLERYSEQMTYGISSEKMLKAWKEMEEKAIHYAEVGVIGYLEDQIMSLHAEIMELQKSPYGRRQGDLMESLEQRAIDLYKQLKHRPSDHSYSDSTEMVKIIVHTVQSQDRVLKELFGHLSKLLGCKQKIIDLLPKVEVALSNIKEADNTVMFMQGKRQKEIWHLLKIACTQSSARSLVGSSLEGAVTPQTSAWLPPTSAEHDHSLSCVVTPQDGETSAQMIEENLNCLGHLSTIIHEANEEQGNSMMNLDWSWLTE
Sequence of Vascular endothelial growth factor receptor 1 (Homo sapiens) (P17948 whole entry): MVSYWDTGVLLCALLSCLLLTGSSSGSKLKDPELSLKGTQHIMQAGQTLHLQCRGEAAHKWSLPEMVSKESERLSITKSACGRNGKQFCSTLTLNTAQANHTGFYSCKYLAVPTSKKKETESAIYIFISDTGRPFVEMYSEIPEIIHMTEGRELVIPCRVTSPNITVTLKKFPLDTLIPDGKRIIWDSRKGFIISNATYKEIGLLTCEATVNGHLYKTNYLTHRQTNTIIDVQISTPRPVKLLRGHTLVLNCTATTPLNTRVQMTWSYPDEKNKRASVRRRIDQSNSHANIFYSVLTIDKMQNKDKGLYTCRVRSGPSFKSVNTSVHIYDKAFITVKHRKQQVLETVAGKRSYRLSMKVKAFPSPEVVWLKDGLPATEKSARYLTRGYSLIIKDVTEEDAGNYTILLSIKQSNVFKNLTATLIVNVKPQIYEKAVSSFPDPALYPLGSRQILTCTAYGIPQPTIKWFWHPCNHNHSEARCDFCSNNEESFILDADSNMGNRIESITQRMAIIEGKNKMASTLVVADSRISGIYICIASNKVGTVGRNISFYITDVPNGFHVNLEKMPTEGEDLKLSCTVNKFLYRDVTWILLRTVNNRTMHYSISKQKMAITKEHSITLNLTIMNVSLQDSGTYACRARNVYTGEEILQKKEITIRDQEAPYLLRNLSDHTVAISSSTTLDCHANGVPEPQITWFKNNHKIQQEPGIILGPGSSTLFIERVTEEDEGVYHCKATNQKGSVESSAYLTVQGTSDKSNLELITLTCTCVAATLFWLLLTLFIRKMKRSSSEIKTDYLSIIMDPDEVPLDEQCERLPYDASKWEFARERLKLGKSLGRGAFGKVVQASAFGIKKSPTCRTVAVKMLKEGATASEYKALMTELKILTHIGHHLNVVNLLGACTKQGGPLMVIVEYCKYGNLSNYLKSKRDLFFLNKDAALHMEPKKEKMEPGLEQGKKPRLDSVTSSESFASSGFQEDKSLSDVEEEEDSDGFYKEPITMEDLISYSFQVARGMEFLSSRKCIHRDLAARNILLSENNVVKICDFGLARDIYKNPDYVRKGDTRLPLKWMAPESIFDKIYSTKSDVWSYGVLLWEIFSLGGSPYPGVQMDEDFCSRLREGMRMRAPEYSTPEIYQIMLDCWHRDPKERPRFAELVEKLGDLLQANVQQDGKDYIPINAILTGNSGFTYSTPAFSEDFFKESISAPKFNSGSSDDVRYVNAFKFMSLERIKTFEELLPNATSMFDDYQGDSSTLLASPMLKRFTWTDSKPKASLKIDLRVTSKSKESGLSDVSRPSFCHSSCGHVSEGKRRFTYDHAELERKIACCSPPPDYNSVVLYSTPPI
Sequence of Gamma-aminobutyric acid type B receptor subunit 1 (Homo sapiens) (Q9UBS5 whole entry): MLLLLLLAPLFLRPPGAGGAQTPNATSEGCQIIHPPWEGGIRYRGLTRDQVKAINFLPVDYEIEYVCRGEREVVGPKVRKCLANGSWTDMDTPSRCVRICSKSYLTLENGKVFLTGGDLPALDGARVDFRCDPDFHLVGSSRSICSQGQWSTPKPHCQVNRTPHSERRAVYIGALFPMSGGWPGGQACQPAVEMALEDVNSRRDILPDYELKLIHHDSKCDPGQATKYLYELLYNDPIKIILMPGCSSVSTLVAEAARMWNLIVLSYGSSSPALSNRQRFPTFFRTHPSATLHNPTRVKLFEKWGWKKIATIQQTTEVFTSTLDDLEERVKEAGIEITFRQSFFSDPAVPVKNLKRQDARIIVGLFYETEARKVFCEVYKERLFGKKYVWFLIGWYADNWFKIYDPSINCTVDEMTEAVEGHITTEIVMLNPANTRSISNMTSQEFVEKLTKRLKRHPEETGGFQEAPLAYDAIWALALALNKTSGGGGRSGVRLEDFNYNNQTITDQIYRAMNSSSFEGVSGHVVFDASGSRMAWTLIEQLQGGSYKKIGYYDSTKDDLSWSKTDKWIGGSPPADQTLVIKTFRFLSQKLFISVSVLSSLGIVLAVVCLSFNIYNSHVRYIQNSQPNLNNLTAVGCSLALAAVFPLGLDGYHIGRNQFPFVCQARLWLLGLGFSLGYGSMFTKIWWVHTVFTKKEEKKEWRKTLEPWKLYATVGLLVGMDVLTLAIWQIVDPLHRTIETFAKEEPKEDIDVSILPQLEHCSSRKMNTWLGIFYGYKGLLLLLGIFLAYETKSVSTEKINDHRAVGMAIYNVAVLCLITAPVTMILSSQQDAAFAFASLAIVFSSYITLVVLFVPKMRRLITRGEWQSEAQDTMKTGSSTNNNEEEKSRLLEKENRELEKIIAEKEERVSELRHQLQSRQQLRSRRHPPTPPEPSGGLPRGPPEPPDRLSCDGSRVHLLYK
Sequence of Platelet-derived growth factor receptor alpha (Homo sapiens) (P16234 whole entry): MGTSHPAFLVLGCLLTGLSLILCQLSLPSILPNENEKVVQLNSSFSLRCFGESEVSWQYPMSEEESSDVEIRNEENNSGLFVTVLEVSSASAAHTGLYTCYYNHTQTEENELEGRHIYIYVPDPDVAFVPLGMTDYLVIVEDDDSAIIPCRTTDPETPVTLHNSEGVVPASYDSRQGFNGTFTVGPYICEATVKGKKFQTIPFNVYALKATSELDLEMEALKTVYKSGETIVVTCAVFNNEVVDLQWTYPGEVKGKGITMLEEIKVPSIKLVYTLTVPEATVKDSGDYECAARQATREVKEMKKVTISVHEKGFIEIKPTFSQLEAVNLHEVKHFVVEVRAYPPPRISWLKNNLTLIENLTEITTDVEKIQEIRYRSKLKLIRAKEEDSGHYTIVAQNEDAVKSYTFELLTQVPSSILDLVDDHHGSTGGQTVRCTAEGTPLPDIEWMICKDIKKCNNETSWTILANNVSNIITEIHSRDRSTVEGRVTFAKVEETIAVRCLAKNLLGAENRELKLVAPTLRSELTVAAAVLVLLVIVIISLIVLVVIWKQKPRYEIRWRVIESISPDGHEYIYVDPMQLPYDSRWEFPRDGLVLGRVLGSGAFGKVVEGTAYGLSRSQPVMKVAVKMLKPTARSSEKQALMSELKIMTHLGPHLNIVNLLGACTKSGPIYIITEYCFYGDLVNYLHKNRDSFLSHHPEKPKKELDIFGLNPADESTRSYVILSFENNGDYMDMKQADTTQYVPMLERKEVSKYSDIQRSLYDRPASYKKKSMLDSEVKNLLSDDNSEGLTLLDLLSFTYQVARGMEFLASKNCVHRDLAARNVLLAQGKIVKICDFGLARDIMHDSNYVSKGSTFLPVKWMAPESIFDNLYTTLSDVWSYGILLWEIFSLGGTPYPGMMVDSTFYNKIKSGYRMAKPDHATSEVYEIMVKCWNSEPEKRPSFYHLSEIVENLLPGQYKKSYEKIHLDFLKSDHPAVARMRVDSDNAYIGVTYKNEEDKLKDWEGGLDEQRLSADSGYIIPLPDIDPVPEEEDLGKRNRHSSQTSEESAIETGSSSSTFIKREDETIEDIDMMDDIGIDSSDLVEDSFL
Sequence of C-C chemokine receptor type 5 (Homo sapiens) (P51681 whole entry, looked up): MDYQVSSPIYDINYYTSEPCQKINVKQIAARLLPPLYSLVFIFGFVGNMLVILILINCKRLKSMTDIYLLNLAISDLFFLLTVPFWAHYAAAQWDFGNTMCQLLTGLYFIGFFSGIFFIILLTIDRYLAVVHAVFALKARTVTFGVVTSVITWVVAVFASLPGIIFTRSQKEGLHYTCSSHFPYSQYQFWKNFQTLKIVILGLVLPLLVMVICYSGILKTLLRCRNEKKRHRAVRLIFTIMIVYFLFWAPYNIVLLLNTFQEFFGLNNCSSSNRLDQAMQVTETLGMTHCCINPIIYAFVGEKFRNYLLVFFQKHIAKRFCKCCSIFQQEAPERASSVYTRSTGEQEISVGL

SMILES	inhibition [1] [%]	inhibition [2] [%]	inhibition [3] [%]	inhibition [4] [%]	inhibition [5] [%]	inhibition [6] [%]	Ki [7] [µM]	pKi [7]	inhibition at 60 min, 10 µM (MAO-A)	inhibition [8] [%]	inhibition at 10 µM [9]	inhibition (Rattus norvegicus) [%]	inhibition (Homo sapiens) [%]	inhibition [10] [%]	inhibition [11] [%]	inhibition [12] [%]	inhibition (Mus musculus) [%]	inhibition [13] [%]	inhibition [14] [%]	inhibition at 10 µM [15]
O=c1n(Cc2cncn2-c2cccc(Cl)c2)nc(-c2ccc(Cl)cc2)n1C[C@H](O)C(F)(F)F	4	-3.13	-2.69	-5.3	–	–	–	–	–	–	–	–	–	–	–	–	–	–	–	–
C[C@H](O)c1nc(Cn2nc(-c3ccc(Cl)cc3)n(C[C@H](O)C(F)(F)F)c2=O)nn1-c1cccc(Cl)c1 [PECAVAPTAN]	–	–	–	–	-9.01	-4.72	2.61	5.58	-3% (not active)	23	1% (not active)	6	-1	-3	-4	-9.22	3	11	3	5% (not active)

Reference: ChEMBL document CHEMBL5463729, “Data for DCP probe BAY 1753011” (2023)
